Experimental data from article PMC11620503 (Antimicrobial Agents and Chemotherapy, 2024).
Converted amounts (≈) assume the structure as drawn. Like-named read-outs stand apart in the source and are kept apart here.

Key:
Experiment in all cases: MIC, broth microdilution
[1] = system: 207 Enterobacterales including carbapenem-resistant isolates; format: cell-based
[2] = system: MEM-nonsusceptible Enterobacterales; format: cell-based
[3] = system: serine-carbapenemase-producing isolates (Enterobacterales); format: cell-based
[4] = system: MBL-producing isolates (Enterobacterales); format: cell-based
[5] = system: 55 isolates of A. baumannii; format: cell-based, Acinetobacter baumannii; conditions: Acinetobacter baumannii (55); for CLSI MIC interpretation I (intermediate) / CLSI MIC interpretation R (resistant) / CLSI MIC interpretation S (susceptible): CLSI breakpoints, marked c: breakpoints for β-lactam alone; for MIC50 / MIC90: fixed concentration (μg/mL) in label; for MIC50: read-out: MIC50; for MIC90: read-out: MIC90
[6] = system: 96 P. aeruginosa; format: cell-based, Pseudomonas aeruginosa; conditions: Pseudomonas aeruginosa (96); for CLSI MIC interpretation I (intermediate) / CLSI MIC interpretation R (resistant) / CLSI MIC interpretation S (susceptible): CLSI breakpoints, marked c: breakpoints for β-lactam alone; for MIC50 / MIC90: fixed concentration (μg/mL) in label; for MIC50: read-out: MIC50; for MIC90: read-out: MIC90
[7] = system: MEM-, imipenem/relebactam-, and ceftolozane/tazobactam-nonsusceptible P. aeruginosa; format: cell-based, Pseudomonas aeruginosa; conditions: for CLSI MIC interpretation I (intermediate) / CLSI MIC interpretation R (resistant) / CLSI MIC interpretation S (susceptible): marked c: breakpoints for β-lactam alone; for MIC50 / MIC90: Pseudomonas aeruginosa; for MIC50: read-out: MIC50; for MIC90: read-out: MIC90
[8] = system: MEM-nonsusceptible Enterobacterales with serine-carbapenemases; format: cell-based
[9] = system: MEM-nonsusceptible Enterobacterales with metallo-carbapenemases; format: cell-based
[10] = All Enterobacterales (207), cefiderocol 205 isolates, CLSI breakpoints, marked c: breakpoints for β-lactam alone, tigecycline: FDA breakpoints
[11] = MEM-nonsusceptible Enterobacterales (127), cefiderocol 126 isolates, CLSI breakpoints, marked c: breakpoints for β-lactam alone, tigecycline: FDA breakpoints
[12] = Enterobacterales with serine-carbapenemases (80), CLSI breakpoints, marked c: breakpoints for β-lactam alone, tigecycline: FDA breakpoints
[13] = Enterobacterales with metallo-carbapenemases (74), cefiderocol 73 isolates, CLSI breakpoints, marked c: breakpoints for β-lactam alone, tigecycline: FDA breakpoints
[14] = Imipenem/relebactam-nonsusceptible Pseudomonas aeruginosa (43), CLSI breakpoints
[15] = MEM-nonsusceptible Pseudomonas aeruginosa (76), CLSI breakpoints
[16] = Imipenem/relebactam-nonsusceptible Pseudomonas aeruginosa (43), fixed concentration (μg/mL) in label
[17] = MEM-nonsusceptible Pseudomonas aeruginosa (76), fixed concentration (μg/mL) in label
[18] = MEM-nonsusceptible Enterobacterales with serine-carbapenemases (58), CLSI breakpoints, marked c: breakpoints for β-lactam alone, tigecycline: FDA breakpoints
[19] = MEM-nonsusceptible Enterobacterales with metallo-carbapenemases (55), cefiderocol 54 isolates, CLSI breakpoints, marked c: breakpoints for β-lactam alone, tigecycline: FDA breakpoints
[20] = Ceftolozane/tazobactam-nonsusceptible Pseudomonas aeruginosa (45), CLSI breakpoints
[21] = Ceftolozane/tazobactam-nonsusceptible Pseudomonas aeruginosa (45), fixed concentration (μg/mL) in label

NCC[C@H](O)C(=O)N[C@@H]1C[C@H](N)[C@@H](O[C@H]2O[C@H](CN)[C@@H](O)[C@H](O)[C@H]2O)[C@H](O)[C@H]1O[C@H]1O[C@H](CO)[C@@H](O)[C@H](N)[C@H]1O [Amikacin]
CLSI MIC interpretation I (intermediate) [1, 10]: 6.3%
CLSI MIC interpretation R (resistant) [1, 10]: 36.7%
CLSI MIC interpretation S (susceptible) [1, 10]: 57%
MIC50 ([1]; read-out: MIC50): 4 µg/mL (≈ 6.83 µM)
MIC90 ([1]; read-out: MIC90): > 64 µg/mL
CLSI MIC interpretation I (intermediate) [2, 11]: 7.9%
CLSI MIC interpretation R (resistant) [2, 11]: 52%
CLSI MIC interpretation S (susceptible) [2, 11]: 40.2%
MIC50 ([2]; MEM-nonsusceptible Enterobacterales (127), cefiderocol 126 isolates, fixed concentration (μg/mL) in label, read-out: MIC50): 16 µg/mL (≈ 27.3 µM)
MIC90 ([2]; MEM-nonsusceptible Enterobacterales (127), cefiderocol 126 isolates, fixed concentration (μg/mL) in label, read-out: MIC90): > 64 µg/mL
CLSI MIC interpretation I (intermediate) [3, 12]: 8.8%
CLSI MIC interpretation R (resistant) [3, 12]: 37.5%
CLSI MIC interpretation S (susceptible) [3, 12]: 53.8%
MIC50 ([3]; Enterobacterales with serine-carbapenemases (80), fixed concentration (μg/mL) in label, read-out: MIC50): 4 µg/mL (≈ 6.83 µM)
MIC90 ([3]; Enterobacterales with serine-carbapenemases (80), fixed concentration (μg/mL) in label, read-out: MIC90): 64 µg/mL (≈ 109 µM)
CLSI MIC interpretation I (intermediate) [4, 13]: 5.4%
CLSI MIC interpretation R (resistant) [4, 13]: 52.7%
CLSI MIC interpretation S (susceptible) [4, 13]: 41.9%
MIC50 ([4]; Enterobacterales with metallo-carbapenemases (74), cefiderocol 73 isolates, fixed concentration (μg/mL) in label, read-out: MIC50): 16 µg/mL (≈ 27.3 µM)
MIC90 ([4]; Enterobacterales with metallo-carbapenemases (74), cefiderocol 73 isolates, fixed concentration (μg/mL) in label, read-out: MIC90): > 64 µg/mL
CLSI MIC interpretation I (intermediate) [5]: 14.5%
CLSI MIC interpretation R (resistant) [5]: 56.4%
CLSI MIC interpretation S (susceptible) [5]: 29.1%
MIC50 [5]: 64 µg/mL (≈ 109 µM)
MIC90 [5]: > 64 µg/mL
CLSI MIC interpretation I (intermediate) [6]: 7.3%
CLSI MIC interpretation R (resistant) [6]: 29.2%
CLSI MIC interpretation S (susceptible) [6]: 63.5%
MIC50 [6]: 8 µg/mL (≈ 13.7 µM)
MIC90 [6]: > 64 µg/mL
CLSI MIC interpretation (%) I ([7]; I, intermediate (including susceptible dose-dependent), CLSI breakpoints, last subgroup of Table 2): 11.1%
CLSI MIC interpretation I (intermediate) [7, 14]: 9.3%
CLSI MIC interpretation R (resistant) [7, 14]: 58.1%
CLSI MIC interpretation S (susceptible) [7, 14]: 32.6%
CLSI MIC interpretation I (intermediate) [7, 15]: 7.9%
CLSI MIC interpretation R (resistant) [7, 15]: 36.8%
CLSI MIC interpretation S (susceptible) [7, 15]: 55.3%
MIC50 [7, 16]: 64 µg/mL
MIC90 [7, 16]: > 64 µg/mL
MIC50 [7, 17]: 8 µg/mL (≈ 13.7 µM)
MIC90 [7, 17]: > 64 µg/mL
MIC50 ([7]; Table 2, broth microdilution): 64 µg/mL (≈ 109 µM)
MIC90 ([7]; Table 2, broth microdilution): > 64 µg/mL
CLSI MIC interpretation (%) R ([7]; R, resistant, CLSI breakpoints, last subgroup of Table 2): 55.6%
CLSI MIC interpretation (%) S ([7]; S, susceptible, CLSI breakpoints, last subgroup of Table 2): 33.3%
CLSI MIC interpretation I (intermediate) [8, 18]: 10.3%
CLSI MIC interpretation R (resistant) [8, 18]: 44.8%
CLSI MIC interpretation S (susceptible) [8, 18]: 44.8%
MIC50 ([8]; MEM-nonsusceptible Enterobacterales with serine-carbapenemases (58), fixed concentration (μg/mL) in label, read-out: MIC50): 8 µg/mL (≈ 13.7 µM)
MIC90 ([8]; MEM-nonsusceptible Enterobacterales with serine-carbapenemases (58), fixed concentration (μg/mL) in label, read-out: MIC90): 64 µg/mL (≈ 109 µM)
CLSI MIC interpretation I (intermediate) [9, 19]: 5.5%
CLSI MIC interpretation R (resistant) [9, 19]: 65.5%
MIC50 ([9]; MEM-nonsusceptible Enterobacterales with metallo-carbapenemases (55), cefiderocol 54 isolates, fixed concentration (μg/mL) in label, read-out: MIC50): 32 µg/mL (≈ 54.6 µM)
MIC90 ([9]; MEM-nonsusceptible Enterobacterales with metallo-carbapenemases (55), cefiderocol 54 isolates, fixed concentration (μg/mL) in label, read-out: MIC90): > 64 µg/mL

C[C@@H](O)[C@H]1C(=O)N2C(C(=O)O)=C(SCCN=CN)C[C@H]12 [Imipenem]
CLSI MIC interpretation I (intermediate) [1]: 7.7%
CLSI MIC interpretation R (resistant) [1]: 55.6%
CLSI MIC interpretation S (susceptible) [1]: 36.7%
MIC50 [1]: 4 µg/mL (≈ 13.4 µM)
MIC90 [1]: 32 µg/mL (≈ 107 µM)
CLSI MIC interpretation I (intermediate) [2]: 10.2%
CLSI MIC interpretation R (resistant) [2]: 79.5%
CLSI MIC interpretation S (susceptible) [2]: 10.2%
MIC50 [2]: 8 µg/mL (≈ 26.7 µM)
MIC90 [2]: > 32 µg/mL
CLSI MIC interpretation I (intermediate) [3]: 7.5%
CLSI MIC interpretation R (resistant) [3]: 68.8%
CLSI MIC interpretation S (susceptible) [3]: 23.8%
MIC50 [3]: 8 µg/mL (≈ 26.7 µM)
MIC90 [3]: > 32 µg/mL
CLSI MIC interpretation I (intermediate) [4]: 9.5%
CLSI MIC interpretation R (resistant) [4]: 70.3%
CLSI MIC interpretation S (susceptible) [4]: 20.3%
MIC50 [4]: 4 µg/mL (≈ 13.4 µM)
MIC90 [4]: > 32 µg/mL
CLSI MIC interpretation I (intermediate) [5]: 3.6%
CLSI MIC interpretation R (resistant) [5]: 87.3%
CLSI MIC interpretation S (susceptible) [5]: 9.1%
MIC50 [5]: 32 µg/mL (≈ 107 µM)
MIC90 [5]: > 32 µg/mL
CLSI MIC interpretation I (intermediate) [6]: 3.1%
CLSI MIC interpretation R (resistant) [6]: 83.3%
CLSI MIC interpretation S (susceptible) [6]: 13.5%
MIC50 [6]: 16 µg/mL (≈ 53.4 µM)
MIC90 [6]: > 32 µg/mL
CLSI MIC interpretation I (intermediate) [7, 20]: 0%
CLSI MIC interpretation R (resistant) [7, 20]: 95.6%
CLSI MIC interpretation S (susceptible) [7, 20]: 4.4%
CLSI MIC interpretation I (intermediate) [7, 14]: 0%
CLSI MIC interpretation R (resistant) [7, 14]: 97.7%
CLSI MIC interpretation S (susceptible) [7, 14]: 2.3%
CLSI MIC interpretation I (intermediate) [7, 15]: 2.6%
CLSI MIC interpretation R (resistant) [7, 15]: 93.4%
CLSI MIC interpretation S (susceptible) [7, 15]: 3.9%
MIC50 [7, 21]: > 32 µg/mL
MIC90 [7, 21]: > 32 µg/mL
MIC50 [7, 16]: > 32 µg/mL
MIC90 [7, 16]: > 32 µg/mL
MIC50 [7, 17]: 32 µg/mL (≈ 107 µM)
MIC90 [7, 17]: > 32 µg/mL
CLSI MIC interpretation I (intermediate) [8]: 10.3%
CLSI MIC interpretation R (resistant) [8]: 84.5%
CLSI MIC interpretation S (susceptible) [8]: 5.2%
MIC50 [8]: 8 µg/mL (≈ 26.7 µM)
MIC90 [8]: > 32 µg/mL
CLSI MIC interpretation I (intermediate) [9]: 9.1%
CLSI MIC interpretation R (resistant) [9]: 81.8%
CLSI MIC interpretation S (susceptible) [9]: 9.1%
MIC50 [9]: 16 µg/mL (≈ 53.4 µM)
MIC90 [9]: > 32 µg/mL
